ChEMBL document CHEMBL4004838, “Design and synthesis of novel phenyl -1, 4-beta-carboline-hybrid molecules as potential anticancer agents” (Eur J Med Chem, 2017)

Assays:
Format in all cases: functional
SF-268 = test: Growth inhibition of human SF268 cells assessed as cell growth at 100 uM incubated for 48 hrs by sulforhodamine B assay relative to control; conditions: SF-268, 48 h, read-out: Activity
TK-10 = test: Growth inhibition of human TK10 cells assessed as cell growth at 1 uM incubated for 48 hrs by sulforhodamine B assay relative to control; conditions: TK-10, 48 h, read-out: Activity
EKVX = test: Growth inhibition of human EKVX cells assessed as cell growth at 100 uM incubated for 48 hrs by sulforhodamine B assay relative to control; conditions: read-out: Activity
T47D = test: Growth inhibition of human T47D cells assessed as cell growth at 0.1 uM incubated for 48 hrs by sulforhodamine B assay relative to control; conditions: read-out: Activity
OVCAR-5 = test: Growth inhibition of human OVCAR5 cells assessed as cell growth at 0.1 uM incubated for 48 hrs by sulforhodamine B assay relative to control; conditions: OVCAR-5, 48 h, read-out: Activity
HCT-116 [1] = test: Growth inhibition of human HCT116 cells assessed as cell growth at 0.01 uM incubated for 48 hrs by sulforhodamine B assay relative to control; conditions: HCT-116, 48 h, read-out: Activity
DU-145 [2] = test: Growth inhibition of human DU145 cells assessed as cell growth at 0.01 uM incubated for 48 hrs by sulforhodamine B assay relative to control; conditions: DU-145, 48 h, read-out: Activity
UO-31 = test: Growth inhibition of human UO31 cells assessed as cell growth at 0.01 uM incubated for 48 hrs by sulforhodamine B assay relative to control; conditions: UO-31, 48 h, read-out: Activity
NCI-H226 [3] = test: Growth inhibition of human NCI-H226 cells assessed as cell growth at 1 uM incubated for 48 hrs by sulforhodamine B assay relative to control; conditions: NCI-H226, 48 h, read-out: Activity
DU-145 [4] = test: Growth inhibition of human DU145 cells assessed as cell growth at 1 uM incubated for 48 hrs by sulforhodamine B assay relative to control; conditions: DU-145, 48 h, read-out: Activity
SR = test: Growth inhibition of human SR cells incubated for 48 hrs by sulforhodamine B assay
NCI-H226 [5] = test: Growth inhibition of human NCI-H226 cells assessed as cell growth at 100 uM incubated for 48 hrs by sulforhodamine B assay relative to control; conditions: NCI-H226, 48 h, read-out: Activity
HT-29 [6] = test: Growth inhibition of human HT-29 cells assessed as cell growth at 100 uM incubated for 48 hrs by sulforhodamine B assay relative to control; conditions: HT-29, 48 h, read-out: Activity
OVCAR-4 = test: Growth inhibition of human OVCAR4 cells incubated for 48 hrs by sulforhodamine B assay; conditions: OVCAR-4, 48 h
SK-MEL-28 [7] = test: Growth inhibition of human SK-MEL-28 cells incubated for 48 hrs by sulforhodamine B assay; conditions: SK-MEL-28, 48 h
HCT-15 = test: Growth inhibition of human HCT15 cells assessed as cell growth at 100 uM incubated for 48 hrs by sulforhodamine B assay relative to control; conditions: HCT-15, 48 h, read-out: Activity
ACHN [8] = test: Growth inhibition of human ACHN cells assessed as cell growth at 0.01 uM incubated for 48 hrs by sulforhodamine B assay relative to control; conditions: read-out: Activity
M14 [9] = test: Growth inhibition of human M14 cells assessed as cell growth at 0.01 uM incubated for 48 hrs by sulforhodamine B assay relative to control; conditions: M14, 48 h, read-out: Activity
HOP-92 [10] = test: Growth inhibition of human HOP92 cells assessed as cell growth at 0.01 uM incubated for 48 hrs by sulforhodamine B assay relative to control; conditions: HOP-92, 48 h, read-out: Activity
SK-MEL-28 [11] = test: Growth inhibition of human SK-MEL-28 cells assessed as cell growth at 0.1 uM incubated for 48 hrs by sulforhodamine B assay relative to control; conditions: SK-MEL-28, 48 h, read-out: Activity
HCT-116 [12] = test: Growth inhibition of human HCT116 cells assessed as cell growth at 1 uM incubated for 48 hrs by sulforhodamine B assay relative to control; conditions: HCT-116, 48 h, read-out: Activity
KM12 = test: Growth inhibition of human KM12 cells assessed as cell growth at 100 uM incubated for 48 hrs by sulforhodamine B assay relative to control; conditions: KM12, 48 h, read-out: Activity
ACHN [13] = test: Growth inhibition of human ACHN cells assessed as cell growth at 100 uM incubated for 48 hrs by sulforhodamine B assay relative to control; conditions: read-out: Activity
MDA-MB-435 = test: Growth inhibition of human MDA-MB-435 cells assessed as cell growth at 100 uM incubated for 48 hrs by sulforhodamine B assay relative to control; conditions: MDA-MB-435, 48 h, read-out: Activity
UACC-62 = test: Growth inhibition of human UACC62 cells assessed as cell growth at 1 uM incubated for 48 hrs by sulforhodamine B assay relative to control; conditions: UACC-62, 48 h, read-out: Activity
ACHN [14] = test: Growth inhibition of human ACHN cells assessed as cell growth at 1 uM incubated for 48 hrs by sulforhodamine B assay relative to control; conditions: read-out: Activity
M14 [15] = test: Growth inhibition of human M14 cells assessed as cell growth at 100 uM incubated for 48 hrs by sulforhodamine B assay relative to control; conditions: M14, 48 h, read-out: Activity
SK-OV-3 = test: Growth inhibition of human SKOV3 cells assessed as cell growth at 1 uM incubated for 48 hrs by sulforhodamine B assay relative to control; conditions: SK-OV-3, 48 h, read-out: Activity
HT-29 [16] = test: Growth inhibition of human HT-29 cells incubated for 48 hrs by sulforhodamine B assay; conditions: HT-29, 48 h
SNB-19 = test: Growth inhibition of human SNB19 cells assessed as cell growth at 0.01 uM incubated for 48 hrs by sulforhodamine B assay relative to control; conditions: SNB-19, 48 h, read-out: Activity
HOP-92 [17] = test: Growth inhibition of human HOP92 cells assessed as cell growth at 100 uM incubated for 48 hrs by sulforhodamine B assay relative to control; conditions: HOP-92, 48 h, read-out: Activity
LOX IMVI = test: Growth inhibition of human LOXIMVI cells assessed as cell growth at 0.1 uM incubated for 48 hrs by sulforhodamine B assay relative to control; conditions: read-out: Activity
HOP-92 [18] = test: Growth inhibition of human HOP92 cells assessed as cell growth at 0.1 uM incubated for 48 hrs by sulforhodamine B assay relative to control; conditions: HOP-92, 48 h, read-out: Activity
[19] = read-out: LC50 (the source's name)
[20] = read-out: pLC50 (the source's name) (converted)

c1ccc2c3c([nH]c2c1)C(c1ccc(C2NCCc4c2[nH]c2ccccc42)cc1)NCC3 (racemic)
growth at 100 µM (SF-268): 83% | growth at 1 µM (TK-10): 97% | growth at 100 µM (EKVX): 81% | growth at 0.1 µM (T47D): 86% | growth at 0.1 µM (OVCAR-5): 93% | growth at 0.01 µM (HCT-116 [1]): 91% | growth at 0.01 µM (DU-145 [2]): 100% | growth at 0.01 µM (UO-31): 89% | growth at 1 µM (NCI-H226 [3]): 94% | growth at 1 µM (DU-145 [4]): 43% | GI50 (SR; read-out: GI50): 2470 nM | CC50 (SR; [19]): 4.51 µM | TGI (SR; read-out: TGI): 5.56 µM | GI50 (SR; read-out: pGI50 (converted)): 245 nM | CC50 (SR; [20]): 4.47 µM | TGI (SR; read-out: pTGI (converted)): 0.55 µM | growth at 100 µM (NCI-H226 [5]): 60% | growth at 100 µM (HT-29 [6]): 90% | GI50 (OVCAR-4; read-out: GI50): 1140 nM | CC50 (OVCAR-4; [19]): 5.61 µM | TGI (OVCAR-4; read-out: TGI): 2.53 µM | GI50 (OVCAR-4; read-out: pGI50 (converted)): 1150 nM | CC50 (OVCAR-4; [20]): 5.62 µM | TGI (OVCAR-4; read-out: pTGI (converted)): 2.51 µM | GI50 (SK-MEL-28 [7]; read-out: GI50): 1680 nM | CC50 (SK-MEL-28 [7]; [19]): 5.99 µM | TGI (SK-MEL-28 [7]; read-out: TGI): 3.18 µM | GI50 (SK-MEL-28 [7]; read-out: pGI50 (converted)): 1700 nM | CC50 (SK-MEL-28 [7]; [20]): 6.03 µM | TGI (SK-MEL-28 [7]; read-out: pTGI (converted)): 3.16 µM | growth at 100 µM (HCT-15): 90% | growth at 0.01 µM (ACHN [8]): 92% | growth at 0.01 µM (M14 [9]): 92% | growth at 0.01 µM (HOP-92 [10]): 86% | growth at 0.1 µM (SK-MEL-28 [11]): 96% | growth at 1 µM (HCT-116 [12]): 81% | growth at 100 µM (KM12): 88% | growth at 100 µM (ACHN [13]): -91% | growth at 100 µM (MDA-MB-435): 97% | growth at 1 µM (UACC-62): 43% | growth at 1 µM (ACHN [14]): 42% | growth at 100 µM (M14 [15]): 95% | growth at 1 µM (SK-OV-3): 90% | GI50 (HT-29 [16]; read-out: GI50): 2800 nM | CC50 (HT-29 [16]; [19]): 3.92 µM | TGI (HT-29 [16]; read-out: TGI): 7.35 µM | GI50 (HT-29 [16]; read-out: pGI50 (converted)): 282 nM | CC50 (HT-29 [16]; [20]): 3.89 µM | TGI (HT-29 [16]; read-out: pTGI (converted)): 0.741 µM | growth at 0.01 µM (SNB-19): 97% | growth at 100 µM (HOP-92 [17]): 90% | growth at 0.1 µM (LOX IMVI): 91% | growth at 0.1 µM (HOP-92 [18]): 87%

c1ccc2[nH]c(-c3ccc(-c4nccc5c4[nH]c4ccccc45)cc3)nc2c1
growth at 100 µM (SF-268): 52% | growth at 1 µM (TK-10): 96% | growth at 100 µM (EKVX): 44% | growth at 0.1 µM (T47D): 89% | growth at 0.1 µM (OVCAR-5): 90% | growth at 0.01 µM (HCT-116 [1]): 92% | growth at 0.01 µM (DU-145 [2]): 98% | growth at 0.01 µM (UO-31): 89% | growth at 1 µM (NCI-H226 [3]): 96% | growth at 1 µM (DU-145 [4]): 97% | GI50 (SR; read-out: GI50): 2210 nM | CC50 (SR; [19]): > 1 µM | TGI (SR; read-out: TGI): 6.36 µM | GI50 (SR; read-out: pGI50 (converted)): 2190 nM | CC50 (SR; [20]): > 100 µM | TGI (SR; read-out: pTGI (converted)): 6.31 µM | growth at 100 µM (NCI-H226 [5]): 50% | growth at 100 µM (HT-29 [6]): 64% | GI50 (OVCAR-4; read-out: GI50): 2270 nM | TGI (OVCAR-4; read-out: TGI): 7.75 µM | GI50 (OVCAR-4; read-out: pGI50 (converted)): 2290 nM | CC50 (OVCAR-4; [20]): > 100 µM | TGI (OVCAR-4; read-out: pTGI (converted)): 7.76 µM | GI50 (SK-MEL-28 [7]; read-out: GI50): 1960 nM | CC50 (SK-MEL-28 [7]; [19]): 7.2 µM | TGI (SK-MEL-28 [7]; read-out: TGI): 3.75 µM | GI50 (SK-MEL-28 [7]; read-out: pGI50 (converted)): 1950 nM | CC50 (SK-MEL-28 [7]; [20]): 7.24 µM | TGI (SK-MEL-28 [7]; read-out: pTGI (converted)): 3.72 µM | growth at 100 µM (HCT-15): 71% | growth at 0.01 µM (ACHN [8]): 99% | growth at 0.01 µM (M14 [9]): 93% | growth at 0.01 µM (HOP-92 [10]): 85% | growth at 0.1 µM (SK-MEL-28 [11]): 98% | growth at 1 µM (HCT-116 [12]): 90% | growth at 100 µM (KM12): 76% | growth at 100 µM (ACHN [13]): 98% | growth at 100 µM (MDA-MB-435): 67% | growth at 1 µM (UACC-62): 80% | growth at 1 µM (ACHN [14]): 101% | growth at 100 µM (M14 [15]): 76% | growth at 1 µM (SK-OV-3): 100% | GI50 (HT-29 [16]; read-out: GI50): 2190 nM | CC50 (HT-29 [16]; [19]): 8.97 µM | TGI (HT-29 [16]; read-out: TGI): 4.43 µM | GI50 (HT-29 [16]; read-out: pGI50 (converted)): 2190 nM | CC50 (HT-29 [16]; [20]): 8.91 µM | TGI (HT-29 [16]; read-out: pTGI (converted)): 4.47 µM | growth at 0.01 µM (SNB-19): 91% | growth at 100 µM (HOP-92 [17]): 76% | growth at 0.1 µM (LOX IMVI): 92% | growth at 0.1 µM (HOP-92 [18]): 93%
